“And” between values parts separate entries of the source, which are not always exact repeats. Equal entries are not always repeated. Where two headings read alike, the source gives them in different places.
How the values were obtained:
testicular cancer = details: cited from earlier work
[1] = Solubility in deuterated solvents for 195Pt NMR; format: physicochemical; details: for 195Pt NMR spectra
Experimental: The FTIR spectra of the ligands and their platinum(II) complexes were carried out on a Nicolet 6700 FTIR spectrophotometer using KBr pellets in the range between 4000 to 400 cm^−1. The ^1H, ^13C and ^77Se NMR spectra were recorded in DMSO-d6 on a Jeol JNM 500 NMR spectrophotometer operating at 500.01, 125.65 and 95.35 MHz respectively. The spectral conditions were; 32 K data points, 0.963 s acquisition time, 3.2 s pulse delay and a 5.75 μs pulse width for ^1H NMR, and 32 K data points, 0.963 s acquisition time, 2.0 s pulse delay and a 5.12 μs pulse width for ^13C NMR. The chemical shifts were measured relative to TMS. The ^77Se NMR chemical shifts were recorded relative to external reference (NaHSeO3 in D2O) at 1308.00 ppm, using 2.0 s pulse delay and using 0.311 s acquisition time. The ^195Pt NMR spectra were recorded in methanol-d4 using a Varian 400 MHz NMR spectrometer at 298 K. The spectra were referenced with respect to potassium tetrachloridoplatinate(II) in D2O at 0 ppm.
The ^195Pt NMR spectroscopy was also employed for thorough characterization of the prepared complexes, as the number of signals and their chemical shift in the ^195Pt NMR spectra provide efficient evidence about the purity and, also generally, the coordination environment of the metal. […]

[2] = test system: ovarian carcinoma resistant to cisplatin (A2780R) cells; assay: MTT in vitro cytotoxicity assay, A2780R; format: cell-based, human; details: triplicate, tested up to 50 μM, read-out: In vitro cytotoxicity IC50 ± S.D., A2780R
Experimental: (§1) All the human cancer cell lines were purchased from European Collection of Cell Cultures (ECACC). The cells were cultivated according to the manufacturer's manuals and maintained in an atmosphere containing 5% CO2 in a humidified incubator at 37° C. The experimental procedure was performed according to the literature. See R. […], PLoS One, 2014, 9(9), e107373, incorporated herein by reference in its entirety. All the experiments were conducted in triplicate. The results were expressed as ICso values along with standard deviations (SD). The significance of the differences between the compared groups of results was assessed by the ANOVA analysis, with p<0.05 considered to be significant (QC Expert 3.2, Statistical software, TriloByte Ltd.). See QC Expert 3.2, Statistical software, TriloByte Ltd., Pardubice, Czech Republic. 2009, incorporated herein by reference in its entirety.

[3] = test system: human breast adenocarcinoma (MCF7) cells; assay: MTT in vitro cytotoxicity assay, MCF7; format: cell-based; details: triplicate, tested up to 50 μM, read-out: In vitro cytotoxicity IC50 ± S.D., MCF7
Experimental: as §1

[4] = test system: human ovarian carcinoma A2780 cells; assay: MTT in vitro cytotoxicity assay, A2780; format: cell-based; details: triplicate, tested up to 50 μM
Experimental: as §1

[5] = test system: prostate carcinoma (22Rv1) cells; assay: MTT in vitro cytotoxicity assay, 22Rv1; format: cell-based, human; details: for IC50: triplicate, tested up to 50 μM, read-out: In vitro cytotoxicity IC50 ± S.D., 22RvI
Experimental: as §1

[6] = ESI-MS stability and interaction with L-cysteine and reduced glutathione; format: physicochemical; details: methanol:water (1:1, v/v), complex 10 μM, Cys 290 μM, GSH 6 μM, immediately vs 24 h after preparation
Experimental: In order to describe the behavior of complexes in different media, i.e. to better understand their stability in protogenic media and interactions of the complexes with sulfur-containing biomolecules under physiological conditions, mass spectrometric experiments involving the interacting systems, containing the mixture of L-cysteine and reduced L-glutathione, were performed.
The electrospray-ionization mass spectrometry (ESI-MS) was used to perform the interaction experiments of the selected two cytotoxic platinum(II) complexes 4 and 5 using the ThermoLCQ Fleet Ion Trap mass spectrometer, in positive ionization mode. […] The measured solutions were injected into the mass spectrometer using the HPLC autosampler (Ultimate 3000, Dionex) in 10 μL spikes. The mass spectra were recorded in the range of 50-1400 m/z. […]
The stability in methanol:water (1:1, v/v) solutions as compared to the pure methanol and interactions of complexes in methanol:water (1:1, v/v)solutions containing the complexes 4 and 5 at the final concentrations of 10 μM and the physiological levels of L-cysteine (Cys) and L-glutathione (GSH), at 290, and 6 μM concentration, respectively, were measured by ESI+MS immediately after preparation and 24 h after preparation. […] The spectra measured immediately after preparation contained mostly the ionic species similar to those identified in reference methanol solutions. […]

[7] = read-out: In vitro cytotoxicity IC50 ± S.D., A2780

## N.N.[Cl][Pt][Cl] [Cisplatin]
Testicular cancer; treatment of testicular cancer
  Cure rate in testicular cancer: over 90%
Testicular cancer; when tumors are discovered early
  Cure rate in testicular cancer, tumors discovered early: ~100%

## NC(N)=[Se].NC(N)=[Se].NC(N)=[Se].NC(N)=[Se].[Cl-].[Cl-].[Pt+2] [Complex 1]
[1]
  Solubility in methanol-d4 and deuterated N,N-dimethylformamide: insufficient solubility

## [Cl-].[Cl-].[Pt+2].[Se]=C1NCCN1.[Se]=C1NCCN1.[Se]=C1NCCN1.[Se]=C1NCCN1 [Complex 2]
[2]
  IC50: > 50 µM
[3]
  IC50: > 50 µM
[4]; [7]
  IC50: > 50 µM
[5]
  IC50: > 50 µM
[1]
  Solubility in methanol-d4 and deuterated N,N-dimethylformamide: insufficient solubility

## CCN1CCNC1=[Se].CCN1CCNC1=[Se].CCN1CCNC1=[Se].CCN1CCNC1=[Se].[Cl-].[Cl-].[Pt+2] [Complex 3, [Pt(N-ethylimidazolidine-2-selenone)4]Cl2]
[2]
  IC50: > 50 µM
[3]
  IC50: > 50 µM
[4]; [7]
  IC50: > 50 µM
[5]
  IC50: > 50 µM

## CCCN1CCNC1=[Se].CCCN1CCNC1=[Se].CCCN1CCNC1=[Se].CCCN1CCNC1=[Se].[Cl-].[Cl-].[Pt+2] [Complex 4]
[2]
  IC50: > 50 µM
[3]
  IC50: > 50 µM
[6]
  Ligand exchange reactions with L-cysteine and reduced glutathione: relatively rapid
[4]; [7]
  IC50: 44.7 µM and 30.8 µM
[5]
  Cytotoxicity against 22Rv1 cells (in words): some cytotoxicity
  IC50: 46.2 ± 3.8 µM

## CC(C)N1CCNC1=[Se].CC(C)N1CCNC1=[Se].CC(C)N1CCNC1=[Se].CC(C)N1CCNC1=[Se].[Cl-].[Cl-].[Pt+2] [Complex 5, [Pt(N-isopropylimidazolidine-2-selenone)4]Cl2]
[2]
  IC50: > 50 µM
[3]
  IC50: > 50 µM
[6]
  Ligand exchange reactions with L-cysteine and reduced glutathione: relatively rapid
[4]; listed as 5, read-out: In vitro cytotoxicity IC50 ± S.D., A2780
  IC50: 30.8 µM
[4]; [7]
  IC50: 44.7 µM
[5]
  IC50: > 50 µM

## [Cl-].[Cl-].[Pt+2].[Se]=C1NCCCN1.[Se]=C1NCCCN1.[Se]=C1NCCCN1.[Se]=C1NCCCN1 [Complex 6]
[2]
  IC50: > 50 µM
[3]
  IC50: > 50 µM
[4]; [7]
  IC50: > 50 µM
[5]
  IC50: > 50 µM

## [Cl-].[Cl-].[Pt+2].[Se]=C1NCCCCN1.[Se]=C1NCCCCN1.[Se]=C1NCCCCN1.[Se]=C1NCCCCN1 [Complex 7]
[2]
  IC50: > 50 µM
[3]
  IC50: > 50 µM
[4]; [7]
  IC50: > 50 µM
[5]
  IC50: > 50 µM

— patent US20190117667A1, “ANTICANCER ACTIVITY OF PLATINUM(II) TETRASELENONE COMPLEXES” (King Fahd University of Petroleum and Minerals, priority 2017, published 2019)
